What was measured:
Format in all cases: cell-based
[1] = tested on: SH-SY5Y human neuroblastoma cells
[2] = tested on: SH-SY5Y human neuroblastoma cells; remark: listed apart in the source
[3] = tested on: SH-SY5Y human neuroblastoma cells; remark: listed apart in the source

For `OO` [H2O2, hydrogen peroxide], the “neurite retraction after hydrogen peroxide treatment” value [1] was “neurites shorten”.

In the case of `CCCC(=O)Nc1ncnc2c1ncn2[C@@H]1O[C@@H]2COP(=O)(O)O[C@H]2[C@H]1OC(=O)CCC` [db-cAMP, dibutyril c-AMP], the “elongation / length of the neurites” value [2] was “triggers elongation of neurites”.

In the case of lysophosphatidic acid [LPA], the “length / collapsing of neurites with increasing doses of LPA” value [3] was “linear retraction of the length of the neurites” and the “neurites after LPA treatment (retraction or preservation)” value [3] was “retraction of the neurites”.

From US9249194B2 (priority 2009, dated 2016)
